Test results as given in patent US20130116231A1, “TYROSINE KINASE INHIBITORS” (Merck Sharp & Dohme Corp., priority 2010, published 2013).

The molecules below were run against T1, human c-Met (Homo sapiens, UniProt P08581) (assay: in vitro kinase assay (homogeneous time-resolved tyrosine kinase assay, METKA)). Conditions: recombinant GST-tagged c-Met cytosolic domain, HTRF, 50 μM MgATP; read-out: Biological Activity (METKA IC50) Activity Code.
T1 construct: Recombinant GST-tagged cytosolic domains of human c-Met; 6xHis; made in house; host or cells: Sf9 or Sf21 insect cells (baculovirus)
Assay type: biochemical
Excerpt: Recombinant GST-tagged cytosolic domains of human c-Met and other receptor tyrosine kinases including mouse c-Met, human Ron, KDR, IGFR, EGFR, FGFR, Mer, TrkA and Tie2 are used to determine whether the compounds of the instant invention modulate the enzymatic activities of these kinases.
Soluble recombinant GST-tagged cytosolic domains of c-Met and other receptor tyrosine kinases are expressed in a baculovirus system (Pharmingen) according to a protocol recommended by the manufacturer. The c-DNA encoding each cytosolic domain is subcloned into a baculovirus expression vector (pGcGHLT-A, B or C, Pharmingen) containing an in frame 6× histidine tag and a GST tag. The resulting plasmid construct and BaculoGold baculovirus DNA (Pharmingen) are used to co-transfect Sf9 or Sf21 insect cells. After confirming expression of GST-tagged kinase fusion, a high titer recombinant baculovirus stock is produced, expression conditions are optimized, and a scaled up expression of rat KDR-GST fusion is performed. The fusion kinase is then purified from the insect cell lysate by affinity chromatography using glutathione agarose (Pharmingen). The purified protein is dialyzed against 50% glycerol, 2 mM DTT, 50 mM Tris-HCl (pH 7.4) and stored at −20° C. The protein concentrations of the fusion proteins are determined using Coomassie Plus Protein Assay (Pierce) with BSA as standard.
The kinase activities of c-Met and other kinases are measured using a modified version of the homogeneous time-resolved tyrosine kinase assay described by Park et al. (1999, Anal. Biochem. 269:94-104).
The procedure for determining the potency of a compound to inhibit c-Met kinase comprises the following steps: • 1. Prepare 3-fold serial diluted compound solutions in 100% dimethyl sulfoxide (DMSO) at 20× of the desired final concentrations in a 96 well plate. • 2. Prepare a master reaction mix containing 6.67 mM MgCl2, 133.3 mM NaCl, 66.7 mM Tris-HCl (pH 7.4), 0.13 mg/ml BSA, 2.67 mM dithiothreitol, 0.27 nM recombinant c-Met and 666.7 nM biotinylated synthetic peptide substrate (biotin-ahx-EQEDEPEGDYFEWLE-CONH2) (SEQ.ID.NO.:1). • 3. In a black assay plate, add 2.5 μl of compound solution (or DMSO) and 37.5 μl of master reaction mix per well. Initiate the kinase reaction by adding 10 μl of 0.25 mM MgATP per well. Allow the reactions to proceed for 80 min at room temperature. The final conditions for the reaction are 0.2 nM c-Met, 0.5 μM substrate, 50 μM MgATP, […], 100 mM NaCl, 2 mM DTT, 0.1 mg/ml BSA, 50 mM Tris (pH 7.4) and 5% DMSO. • 4. Stop the kinase reaction with 50 μl of Stop/Detection buffer containing 10 mM EDTA, 25 mM HEPES, 0.1% TRITON X-100, 0.126 μg/ml Eu-chelate labeled anti-phosphotyrosine antibody PY20 (cat. #AD0067, PerkinElmer) and 45 μg/ml Streptavidin-allophycocyanin conjugate (cat. #PJ25S, Prozyme). • 5. Read HTRF signals on a Victor reader (PerkinElmer) in HTRF mode after 60 min. • 6. IC50 is determined by fitting the observed relationship between compound concentration and HTRF signal with a 4-parameter logistic equation. Essentially the same procedure was used to determine the potency of compounds to inhibit mouse c-Met, human Ron, KDR, IGFR, EGFR, FGFR, Mer, TrkA and Tie2 except that the concentration of enzyme varied in individual assays (0.2 nM mouse c-Met; 2.5 nM Ron, 8 nM KDR; 0.24 nM IGFR; 0.24 nM EGFR; 0.14 nM FGFR; 16 nM Mer; 8 nM TrkA; 8 nM Tie2).

T1 sequence (P08581 956-1390 limits assumed): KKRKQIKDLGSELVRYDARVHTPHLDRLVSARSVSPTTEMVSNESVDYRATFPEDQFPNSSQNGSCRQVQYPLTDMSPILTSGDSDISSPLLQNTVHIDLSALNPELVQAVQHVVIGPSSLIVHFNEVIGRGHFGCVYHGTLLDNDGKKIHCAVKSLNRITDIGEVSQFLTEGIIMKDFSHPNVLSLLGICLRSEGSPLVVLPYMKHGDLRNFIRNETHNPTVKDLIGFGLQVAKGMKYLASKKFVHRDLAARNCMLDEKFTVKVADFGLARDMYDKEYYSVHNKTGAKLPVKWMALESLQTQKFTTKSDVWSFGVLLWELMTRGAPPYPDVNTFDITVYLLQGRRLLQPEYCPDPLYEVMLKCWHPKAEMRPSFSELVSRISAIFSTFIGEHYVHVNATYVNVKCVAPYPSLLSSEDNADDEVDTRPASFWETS

SMILES | IC50 [nM]
COc1ccnc2ccc(OCc3nn(-c4cnn(C)c4)ccc3=O)cc12 [Example 48, 3-{[(4-Methoxyquinolin-6-yl)oxy]methyl}-1-(1-methyl-1H-pyrazol-4-yl)pyridazin-4(1H)-one] | < 100
COc1ccc2cc(OCc3nn(-c4cnn(C)c4)ccc3=O)ccc2n1 [Example 49, 3-{[(2-methoxyquinolin-6-yl)oxy]methyl}-1-(1-methyl-1H-pyrazol-4-yl)pyridazin-4(1H)-one] | 100 to 1000
Cc1ccnc2ccc(OCc3nn(-c4cnn(C)c4)ccc3=O)cc12 [Example 50, 1-(1-methyl-1H-pyrazol-4-yl)-3-{[(4-methylquinolin-6-yl)oxy]methyl}pyridazin-4(1H)-one] | < 100
NC(=O)c1cccc(-n2ccc(=O)c(COc3ccc4ncccc4c3)n2)c1 [Example 51, 3-{4-Oxo-3-[(quinolin-6-yloxy)methyl]pyridazin-1(4H)-yl}benzamide] | < 100
COCCOc1cnc2ccc(OCc3nn(-c4cccc(C(=O)N(C)C)c4)ccc3=O)cc2c1 [Example 52, 3-[3-({[3-(2-methoxyethoxy)quinolin-6-yl]oxy}methyl)-4-oxopyridazin-1(4H)-yl]-N,N-dimethylbenzamide] | 1000 to 3000
Cn1cc(-n2ccc(=O)c(CCc3ccc4ncccc4c3)n2)cn1 [Example 53, 1-(1-Methyl-1H-pyrazol-4-yl)-3-[2-(quinolin-6-yl)ethyl]pyridazin-4(1H)-one] | < 100
Cn1cc(-n2ccc(=O)c(CCc3ccnc4ccccc34)n2)cn1 [Example 54, 1-(1-methyl-1H-pyrazol-4-yl)-3-(2-quinolin-4-ylethyl)pyridazin-4(1H)-one] | 1000 to 3000
Cn1cc(-n2ccc(=O)c(CCc3ccnc4[nH]ccc34)n2)cn1 [Example 55, 1-(1-methyl-1H-pyrazol-4-yl)-3-[2-(1H-pyrrolo[2,3-b]pyridin-4-yl)ethyl]pyridazin-4(1H)-one] | 1000 to 3000
COC(=O)c1ccc(CCc2nn(-c3cnn(C)c3)ccc2=O)cc1 [Example 56, methyl 4-{2-[1-(1-methyl-1H-pyrazol-4-yl)-4-oxo-1,4-dihydropyridazin-3-yl]ethyl}benzoate] | 1000 to 3000
COCCOc1cnc2ccc(CCc3nn(-c4cnn(C)c4)ccc3=O)cc2c1 [Example 57, 3-{2-[3-(2-methoxyethoxy)quinolin-6-yl]ethyl}-1-(1-methyl-1H-pyrazol-4-yl)pyridazin-4(1H)-one] | < 100
CCOc1cnc2ccc(CCc3nn(-c4cnn(C)c4)ccc3=O)cc2c1 [Example 58, 3-[2-(3-ethoxyquinolin-6-yl)ethyl]-1-(1-methyl-1H-pyrazol-4-yl)pyridazin-4(1H)-one] | < 100
COc1ccnc2ccc(CCc3nn(-c4cnn(C)c4)ccc3=O)cc12 [Example 59, 3-[2-(4-methoxyquinolin-6-yl)ethyl]-1-(1-methyl-1H-pyrazol-4-yl)pyridazin-4(1H)-one] | < 100
Cn1cc(-n2ccc(=O)c(CCc3ccc4nccnc4c3)n2)cn1 [Example 60, 1-(1-Methyl-1H-pyrazol-4-yl)-3-[2-(quinoxalin-6-yl)ethyl]pyridazin-4(1H)-one] | 1000 to 3000
Cn1cc(-n2ccc(=O)c(COc3ccc4ncc(O)cc4c3)n2)cn1 [Example 61, 3-Hydroxy-6-{[1-(1-methyl-1H-pyrazol-4-yl)-4-oxo-1,4-dihydropyridazin-3-yl]methoxy}quinolinium chloride] | < 100
Cn1cc(-n2ccc(=O)c(COc3ccc4ncc(OCC(C)(C)O)cc4c3)n2)cn1 [Example 62, 3-({[3-(2-Hydroxy-2-methylpropoxy)quinolin-6-yl]oxy}methyl)-1-(1-methyl-1H-pyrazol-4-yl)pyridazin-4(1H)-one] | < 100
Cn1cc(-n2ccc(=O)c(COc3ccc4ncc(OC5COC5)cc4c3)n2)cn1 [Example 63, 1-(1-Methyl-1H-pyrazol-4-yl)-3-({[3-(oxetan-3-yloxy)quinolin-6-yl]oxy}methyl)pyridazin-4(1H)-one] | < 100
[2H]C([2H])([2H])C([2H])([2H])Oc1cnc2ccc(OCc3nn(-c4cnn(C)c4)ccc3=O)cc2c1 [Example 64, 3-[({3-[(^2H5)ethyloxy]quinolin-6-yl}oxy)methyl]-1-(1-methyl-1H-pyrazol-4-yl)pyridazin-4(1H)-one] | < 100
Cn1cc(-n2ccc(=O)c(COc3ccc4ncc(OCC(F)F)cc4c3)n2)cn1 [Example 65, 3-({[3-(2,2-difluoroethoxy)quinolin-6-yl]oxy}methyl)-1-(1-methyl-1H-pyrazol-4-yl)pyridazin-4(1H)-one] | < 100
Cn1cc(-n2ccc(=O)c(COc3ccc4ncc(OC(F)F)cc4c3)n2)cn1 [Example 66, 3-({[3-(difluoromethoxy)quinolin-6-yl]oxy}methyl)-1-(1-methyl-1H-pyrazol-4-yl)pyridazin-4(1H)-one] | < 100
CCn1cc(-n2ccc(=O)c(COc3ccc4ncc(Oc5ccccn5)cc4c3)n2)cn1 [Example 67, 1-(1-ethyl-1H-pyrazol-4-yl)-3-({[3-(pyridin-2-yloxy)quinolin-6-yl]oxy}methyl)pyridazin-4(1H)-one] | < 100
CCn1cc(-n2ccc(=O)c(COc3ccc4ncc(OCC(F)F)cc4c3)n2)cn1 [Example 68, 3-({[3-(2,2-difluoroethoxy)quinolin-6-yl]oxy}methyl)-1-(1-ethyl-1H-pyrazol-4-yl)pyridazin-4(1H)-one] | < 100
CCn1cc(-n2ccc(=O)c(COc3ccc4ncc(OC5CCOC5)cc4c3)n2)cn1 (centres unmarked) [Example 69, 1-(1-ethyl-1H-pyrazol-4-yl)-3-({[3-(tetrahydrofuran-3-yloxy)quinolin-6-yl]oxy}methyl)pyridazin-4(1H)-one] | < 100
CCn1cc(-n2ccc(=O)c(COc3ccc4ncc(OCc5noc(C)n5)cc4c3)n2)cn1 [Example 70, 1-(1-ethyl-1H-pyrazol-4-yl)-3-[({3-[(5-methyl-1,2,4-oxadiazol-3-yl)methoxy]quinolin-6-yl}oxy)methyl]pyridazin-4(1H)-one] | < 100
Cc1cnc2ccc(OCc3nn(-c4cnn(C)c4)ccc3=O)cc2c1 [Example 71, 1-(1-Methyl-1H-pyrazol-4-yl)-3-{[(3-methylquinolin-6-yl)oxy]methyl}pyridazin-4(1H)-one] | < 100
CCc1cnc2ccc(OCc3nn(-c4cnn(C)c4)ccc3=O)cc2c1 [Example 72, 3-{[(3-ethylquinolin-6-yl)oxy]methyl}-1-(1-methyl-1H-pyrazol-4-yl)pyridazin-4(1H)-one] | < 100
COCc1cnc2ccc(OCc3nn(-c4cnn(C)c4)ccc3=O)cc2c1 [Example 73, 3-({[3-(methoxymethyl)quinolin-6-yl]oxy}methyl)-1-(1-methyl-1H-pyrazol-4-yl)pyridazin-4(1H)-one] | < 100
Cn1cc(-n2ccc(=O)c(COc3ccc4ncc(-c5cccnc5)cc4c3)n2)cn1 [Example 74, 1-(1-Methyl-1H-pyrazol-4-yl)-3-{[(3-pyridin-3-ylquinolin-6-yl)oxy]methyl}pyridazin-4(1H)-one] | < 100
Cn1cc(-c2cnc3ccc(OCc4nn(-c5cnn(C)c5)ccc4=O)cc3c2)cn1 [Example 75] | < 100
CCn1cc(-n2ccc(=O)c(COc3ccc4ncc(-c5ccc(S(C)(=O)=O)cc5)cc4c3)n2)cn1 [Example 76, 1-(1-Ethyl-1H-pyrazol-4-yl)-3-[({3-[4-(methylsulfonyl)phenyl]quinolin-6-yl}oxy)methyl]pyridazin-4(1H)-one] | < 100
